{
  "source": "patent US9534221B2",
  "about": "“Targeting the steroidogenic pathway for treating and/or preventing allergic diseases” (National Jewish Health, priority 2013, dated 2017)",
  "key": {"Cyp11a1 [1]": {"target": "T1, Cyp11a1 (Mus musculus, UniProt Q9QZ82)", "T1 construct": "mononuclear cells (MNCs) were processed from the spleens of OT-1 mice; endogenous in cells", "T1 sequence (Q9QZ82 37-526)": "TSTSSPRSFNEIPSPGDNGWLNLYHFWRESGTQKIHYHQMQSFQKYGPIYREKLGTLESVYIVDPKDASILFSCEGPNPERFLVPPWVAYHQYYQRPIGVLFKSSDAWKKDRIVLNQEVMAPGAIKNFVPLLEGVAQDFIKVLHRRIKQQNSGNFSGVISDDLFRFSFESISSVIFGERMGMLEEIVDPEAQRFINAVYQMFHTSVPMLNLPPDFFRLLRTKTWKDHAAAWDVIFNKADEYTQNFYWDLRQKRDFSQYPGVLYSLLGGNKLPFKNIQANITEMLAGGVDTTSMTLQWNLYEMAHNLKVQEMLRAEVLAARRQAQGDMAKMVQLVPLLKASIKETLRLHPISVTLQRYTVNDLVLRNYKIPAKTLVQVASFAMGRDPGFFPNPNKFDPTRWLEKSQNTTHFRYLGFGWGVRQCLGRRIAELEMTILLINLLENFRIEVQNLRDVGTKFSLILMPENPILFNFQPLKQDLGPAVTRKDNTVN", "assay": "Pregnenolone ELISA in supernatants of differentiated CD8+ T cells (Cyp11a1 enzymatic activity)", "type": "cell-based", "conditions": "CD8+ T cells differentiated in IL-2+IL-4, AMG 500 μM; without AMG 424.8±35.5 pg/ml", "procedure": "CD8^+ effector memory T cells were generated in vitro as previously described (Miyahara, N. et al. J. Immunol. 172, 2549-2558 (2004); Miyahara, N. et al. J. Immunol. 174, 4979-4984 (2005)). In brief, mononuclear cells (MNCs) were processed from the spleens of OT-1 mice followed by stimulation of 1 μg/ml [sequence] peptide (SEQ ID NO:1) was used to stimulate cells for 1.5 hours. Two days after culture, living cells were re-isolated using histopaque and cultured in complete RPMI 1640 medium that contained recombinant mouse IL-2 (20 ng/ml) (R&D, Minneapolis, Minn.) or IL-2+IL-4 (20 ng/ml) (Peprotech, Rocky Hill, N.J.). For some experiments, AMG was added into the medium together with IL-2 or IL-2+IL-4. Medium with cytokines was changed every day for a further 4 days. The cells were then re-stimulated with 1 μg/ml [sequence] (SEQ ID NO:1) in medium containing 2 μM monensin (Calbiochem, La Jolla, Calif.) for 4 hours.\nCD8^+ T cells generated in the presence of IL-2, IL-2+IL-4, IL-2+AMG, or IL-2+IL-4+AMG were cultured in 6-well plates at 5×10^6/ml for 24 hours. Supernatants were collected. Pregnenolone levels were measured using the Pregnenolone ELISA kit (ALPCO Diagnostics, Salem, N.H.).\nThe enzymatic activity of Cyp11a1 was assessed using an ELISA assay for detection of pregnenolone levels in cell culture supernatants (Kim, C. J. et al. J. Clin. Endocrinol. Metab. 93, 696-702 (2008))."}, "Cyp11a1 [2]": {"system": "Cyp11a1", "assay": "Immunoblot analysis of Cyp11a1 protein in CD8+ T cells", "type": "cell-based, mouse", "conditions": "IL-2+IL-4, 500 μM AMG, with or without SIINFEKL re-stimulation", "procedure": "In brief, mononuclear cells (MNCs) were processed from the spleens of OT-1 mice followed by stimulation of 1 μg/ml [sequence] peptide (SEQ ID NO:1) was used to stimulate cells for 1.5 hours. Two days after culture, living cells were re-isolated using histopaque and cultured in complete RPMI 1640 medium that contained recombinant mouse IL-2 (20 ng/ml) (R&D, Minneapolis, Minn.) or IL-2+IL-4 (20 ng/ml) (Peprotech, Rocky Hill, N.J.). For some experiments, AMG was added into the medium together with IL-2 or IL-2+IL-4. Medium with cytokines was changed every day for a further 4 days. The cells were then re-stimulated with 1 μg/ml [sequence] (SEQ ID NO:1) in medium containing 2 μM monensin (Calbiochem, La Jolla, Calif.) for 4 hours.\nCD8^+ T cells (5×10^6) were lysed with RIPA buffer containing Hale™ protease and phosphatase inhibitor cocktail (Thermo Scientific, Rockford, Ill.) on ice for 30 minutes. Samples were run by sodium dodecyl sulfate polyacrylamide gel electrophoresis (SDS-PAGE) and transferred to nitrocellulose membranes. […] Immunoreactive bands of Western blottings were quantified by densitometric quantification of autoradiographs using Image J (NIMH, Bethesda, Md.), and expressed as relative Cyp11a1 normalized by β-actin."}, "Balb/c mice": {"system": "Balb/c mice", "assay": "Peanut-induced intestinal allergy model (PE sensitized and challenged mice)", "type": "in vivo, mouse", "description": "The experimental protocol for sensitization and challenge to peanut was previously described (Wang, M., et al. J. Allergy Clin. Immunol. 126, 306-316 (2010).\nAMG was dissolved in 1 M hydrogen chloride and diluted with saline for in vivo studies or diluted with RPMI medium for in vitro study. The final concentration of 1 M hydrogen chloride was less than 1% and 0.05% for in vivo and in vitro, respectively. PE sensitized and challenged mice received different doses (5, 10, 20 mg/kg) of the Cyp11a1 enzyme inhibitor (PE/PE/AMG) by means of gavage using a 22-gauge feeding needle (Fisher Scientific) twice a day during the peanut challenge phase. Controls included PE sensitized and challenged but vehicle (saline) treated (PE/PE/vehicle), or sham sensitized but PE challenged and vehicle-treated (PBS/PE/vehicle) mice.\nAnaphylactic symptoms were evaluated 30 minutes after the oral challenge, as previously reported (Li, X. M., et al. J. Allergy Clin. Immunol. 106:150-158 (2000)). Briefly, 0: no symptoms; 1: scratching and rubbing around the nose and head; 2: puffiness around the eyes and mouth, diarrhea, pilar erecti, reduced activity, and/or decreased activity with increased respiratory rate; 3: wheezing, labored respiration, and cyanosis around the mouth and the tail; 4: no activity after prodding or tremor and convulsion; and 5: death. Scoring of symptoms was performed in a blinded manner by an independent observer.\nThe jejunum was processed and stained with periodic acid-Schiff (PAS) and chloroacetate esterase for detection of mucosal mucus-containing cells and mast cells respectively, as previously described (Wang, M., et al. J. Allergy Clin. Immunol. 126, 306-316 (2010); Tomkinson, A., et al. Am. J. Respir. Crit. Care Med. 163, 721-730 (2001)). Numbers of mucosal cells expressing Cyp11a1 were identified by immunohistochemical (IHC) staining using anti-human Cyp11a1 antibody (Abcam, Cambridge, Mass.).\nSerum peanut-specific IgE, IgG1, and IgG2a levels were measured by ELISA, as described previously (Payne, A. H. Biol. Reprod. 42, 399-404 (1990)).\nLevels of histamine in plasma were measured using an enzyme immunoassay histamine kit (Beckman Coulter, Fullerton, Calif.), as described by the manufacturer. The concentration of histamine was calculated from a standard curve provided by the manufacturer.\nRNA was extracted from jejunal tissue homogenates or from CD4 T cells cultured in vitro using Trizol (Invitrogen). cDNA was generated using the iScript cDNA synthesis kit (Bio-Rad Laboratories, Hercules, Calif.). Quantitative real-time PCR was performed on the ABI Prism 7300 sequence detection system (Applied Biosystems, Foster City, Calif.). All primers and probes used were purchased as Tagman Gene Expression Assays from Applied Biosystems. Fold change was calculated using the Delta Delta cycle threshold (ΔΔCT) method."}, "Cyp11a1 [3]": {"target": "T1, Cyp11a1", "assay": "Pregnenolone levels in serum of peanut sensitized and challenged mice (Cyp11a1 enzymatic activity)", "type": "in vivo", "conditions": "AMG 20 mg/kg, PE/PE mice; PE/PE without AMG 4.69±0.92, PBS/PE 1.99±0.11", "procedure": "Pregnenolone levels in serum and cell culture supernatants were measured by ELISA (ALPCO Diagnostics, Salem, N.H.), as described by the manufacturer."}, "CD8+ T cells": {"system": "CD8+ T cells", "assay": "Flow cytometric intracellular staining of IFN-γ and IL-13 in CD8+ T cells", "type": "cell-based, mouse", "conditions": "no SIINFEKL"}},
  "data": [
    {"molecule": "CCC1(c2ccc(N)cc2)CCC(=O)NC1=O", "note": "(stereo not drawn) [AMG, aminoglutethimide]", "values": [
      {"measurement": "Pregnenolone levels in cell supernatants", "setting": "Cyp11a1 [1]", "value": "96.4 ± 35", "unit": "pg/mL"},
      {"measurement": "Cyp11a1 protein levels (immunoblot)", "setting": "Cyp11a1 [2]", "value": "did not prevent IL-4-induced increases in Cyp11a1 protein levels"},
      {"measurement": "Clinical symptoms", "setting": "Balb/c mice; 5 mg/kg", "value": "no observed inhibitory effects"},
      {"measurement": "Diarrhea occurrence", "setting": "Balb/c mice; 5 mg/kg", "value": "no observed inhibitory effects"},
      {"measurement": "Diarrhea", "setting": "Balb/c mice; 10 mg/kg", "value": "partially inhibited"},
      {"measurement": "Symptom scores", "setting": "Balb/c mice; 10 mg/kg", "value": "partially inhibited"},
      {"measurement": "Numbers of mast cells in the mucosa of the small intestine", "setting": "Balb/c mice; 20 mg/kg", "value": "markedly reduced"},
      {"measurement": "Numbers of mucus-producing goblet cells in the mucosa of the small intestine", "setting": "Balb/c mice; 20 mg/kg", "value": "markedly reduced"},
      {"measurement": "Clinical symptom scores", "setting": "Balb/c mice; 20 mg/kg, 30 minutes after oral challenge", "value": "significantly diminished"},
      {"measurement": "Development of diarrhea", "setting": "Balb/c mice; 20 mg/kg, gavage twice a day during challenge phase", "value": "fully prevented"},
      {"measurement": "Cyp11a1 mRNA in the small intestine", "setting": "Balb/c mice; AMG 20 mg/kg", "value": "did not affect"},
      {"measurement": "GATA3 mRNA expression in the small intestine", "setting": "Balb/c mice; AMG 20 mg/kg", "value": "not affected"},
      {"measurement": "IL4 mRNA expression in the small intestine", "setting": "Balb/c mice; AMG 20 mg/kg", "value": "reduced to baseline levels"},
      {"measurement": "IL13 mRNA expression in the small intestine", "setting": "Balb/c mice; AMG 20 mg/kg", "value": "reduced to baseline levels"},
      {"measurement": "IL17A mRNA expression in the small intestine", "setting": "Balb/c mice; AMG 20 mg/kg", "value": "reduced to baseline levels"},
      {"measurement": "Numbers of Cyp11a1-positive cells in the small intestine", "setting": "Balb/c mice; AMG 20 mg/kg", "value": "did not affect"},
      {"measurement": "RORγt mRNA expression in the small intestine", "setting": "Balb/c mice; AMG 20 mg/kg", "value": "not affected"},
      {"measurement": "T-bet mRNA expression in the small intestine", "setting": "Balb/c mice; AMG 20 mg/kg", "value": "not affected"},
      {"measurement": "Plasma histamine levels", "setting": "Balb/c mice; AMG 20 mg/kg, within 30 minutes of the last challenge", "value": "significantly lower"},
      {"measurement": "Serum peanut-specific IgE", "setting": "Balb/c mice; AMG given after sensitization", "value": "unaffected"},
      {"measurement": "Serum peanut-specific IgG1", "setting": "Balb/c mice; AMG given after sensitization", "value": "unaffected"},
      {"measurement": "Serum peanut-specific IgG2a", "setting": "Balb/c mice; AMG given after sensitization", "value": "unaffected"},
      {"measurement": "Pregnenolone levels in serum", "setting": "Cyp11a1 [3]", "value": "2.98 ± 0.60", "unit": "ng/mL"},
      {"measurement": "IFN-γ single positive cells", "setting": "CD8+ T cells; IL-2+AMG (500 μM)", "value": "0.2 +/− 0.1%"},
      {"measurement": "IFN-γ+IL13+ double positive cells", "setting": "CD8+ T cells; IL-2+AMG (500 μM)", "value": 0, "unit": "%"},
      {"measurement": "IL-13 single positive cells", "setting": "CD8+ T cells; IL-2+AMG (500 μM)", "value": "0.4 +/− 0.2%"},
      {"measurement": "IFN-γ+IL13+ double positive cells", "setting": "CD8+ T cells; IL-2+IL-4+AMG (500 μM)", "value": 0.1, "unit": "%"}
    ]}
  ]
}
